Reference: US20190308988A1, “OPIOID RECEPTOR ANTAGONIST PRODRUGS” (Nirsum Laboratories, Inc., priority 2017, published 2019)

Legend:
[1] = Dog body weights and clinical observation (Tables 66-86); assay type: in vivo, Beagle dogs; conditions: 48 mg/kg Shallow IM, dog D1002, 1128 hr
Method: Weight monitoring was done every week.
The dose formulation (concentration—400 mg base equivalents/ml in sesame oil+1% benzyl alcohol, unless otherwise specified) was administered via deep intramuscularly (unless otherwise specified). The injection vehicle was also dosed via deep intramuscular route (unless otherwise specified) on contralateral site of each animal at study initiation. The animals were sedated with Propofol at 6 mg/kg via IV administration. Following sedation hair was carefully removed from around the injection site and the area gently cleaned. Care will be taken to avoid irritating skin during shaving and cleaning the injection site. Then dogs will be dosed with deep IM administration. At least 2.5 cm depth from the surface into the central aspect of the quadriceps or biceps femoris muscle, by angling the needle toward the femur. If the needle hits the femur, simply draws back slightly and then inject. The dose volume will be determined by the animals' body weight collected on the morning of dosing day. For repeated administration, the injection sites may be rotated to minimize tissue injury.

[2] = Plasma stability, human plasma (HPLC-MS); assay type: in vitro ADME; conditions: 2 μM, 37° C., 15 min
Method: Plasma Stability Determination of the Test Compounds in Rat, Dog, Cynomolgus Monkey and human plasma is performed using HPLC-MS. For rat, incubations are carried out in 96-well polypropylene plates in 5 aliquots of 70 μL each (one for each time point). […] Five time points are analyzed (0, 15, 120, 480 and 1440 min). […] All incubations are performed in duplicates. The samples are analyzed by HPLC-MS. The percentage of parent compound remaining after incubation in plasma is determined.

## C=C1CC[C@@]2(O)C3Cc4ccc(OCOC(=O)OCCCCCCCCCCCC)c5c4[C@@]2(CCN3CC2CC2)[C@H]1O5 [Compound 24, (((4aS,7aS,12bS)-3-(cyclopropylmethyl)-4a-hydroxy-7-methylene-2,3,4,4a,5,6,7,7a-octahydro-1H-4,12-methanobenzofuro[3,2-e]isoquinolin-9-yl)oxy)methyl dodecyl carbonate]
[1]
  BT: BT: 38.8 °C
[2]
  % remaining at time point in minutes, 15 min: 94%
